Active and inactive are the calls of the source.
Assays:
[1] = biological target: Dual specificity testis-specific protein kinase 1 (Homo sapiens, UniProt Q15569)
[2] = biological target: Dual specificity protein kinase CLK2 (Homo sapiens, UniProt P49760)
[3] = biological target: High affinity nerve growth factor receptor (Homo sapiens, UniProt P04629)
[4] = biological target: T1, Ephrin type-A receptor 1 (Homo sapiens, UniProt P21709)
T1 sequence (P21709 whole entry): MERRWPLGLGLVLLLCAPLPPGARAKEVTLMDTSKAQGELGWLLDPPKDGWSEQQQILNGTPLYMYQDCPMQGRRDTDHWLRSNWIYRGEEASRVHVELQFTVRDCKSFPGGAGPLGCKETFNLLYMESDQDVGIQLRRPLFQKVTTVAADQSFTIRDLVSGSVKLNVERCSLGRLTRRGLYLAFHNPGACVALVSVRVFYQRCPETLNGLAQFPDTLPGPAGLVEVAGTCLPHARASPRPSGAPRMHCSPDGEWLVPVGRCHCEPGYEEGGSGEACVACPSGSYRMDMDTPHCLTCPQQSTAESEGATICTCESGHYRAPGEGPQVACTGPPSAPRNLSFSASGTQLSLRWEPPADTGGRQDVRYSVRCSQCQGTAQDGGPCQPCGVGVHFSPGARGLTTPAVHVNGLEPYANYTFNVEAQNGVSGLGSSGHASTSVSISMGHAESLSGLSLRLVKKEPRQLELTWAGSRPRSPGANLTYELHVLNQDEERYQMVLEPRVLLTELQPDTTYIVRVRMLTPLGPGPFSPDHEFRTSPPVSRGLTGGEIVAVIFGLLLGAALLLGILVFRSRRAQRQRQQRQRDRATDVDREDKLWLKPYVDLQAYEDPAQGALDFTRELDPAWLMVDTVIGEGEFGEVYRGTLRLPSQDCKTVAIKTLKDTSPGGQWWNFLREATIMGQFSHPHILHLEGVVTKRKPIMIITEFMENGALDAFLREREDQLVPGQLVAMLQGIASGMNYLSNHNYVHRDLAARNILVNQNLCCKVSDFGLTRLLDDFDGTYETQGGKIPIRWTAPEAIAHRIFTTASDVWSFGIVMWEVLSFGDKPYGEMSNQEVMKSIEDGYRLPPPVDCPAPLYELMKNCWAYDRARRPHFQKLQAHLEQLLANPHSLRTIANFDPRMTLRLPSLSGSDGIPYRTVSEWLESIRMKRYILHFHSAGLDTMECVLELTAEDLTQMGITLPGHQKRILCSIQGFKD

[5] = biological target: Choline-phosphate cytidylyltransferase A (Homo sapiens, UniProt P49585)
Chain of Choline-phosphate cytidylyltransferase A (P49585 whole entry): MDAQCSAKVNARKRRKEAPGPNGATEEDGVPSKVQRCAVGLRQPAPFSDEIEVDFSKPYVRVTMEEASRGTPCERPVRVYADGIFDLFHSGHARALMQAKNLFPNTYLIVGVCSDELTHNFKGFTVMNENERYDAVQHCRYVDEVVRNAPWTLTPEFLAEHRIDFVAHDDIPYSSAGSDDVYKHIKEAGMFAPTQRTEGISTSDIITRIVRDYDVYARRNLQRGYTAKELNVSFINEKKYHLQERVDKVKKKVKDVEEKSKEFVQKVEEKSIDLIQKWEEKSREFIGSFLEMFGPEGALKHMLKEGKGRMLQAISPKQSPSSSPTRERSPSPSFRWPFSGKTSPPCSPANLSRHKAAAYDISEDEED

[6] = biological target: T2, Receptor-type tyrosine-protein kinase FLT3 (Homo sapiens, UniProt P36888)
T2 sequence (P36888 whole entry): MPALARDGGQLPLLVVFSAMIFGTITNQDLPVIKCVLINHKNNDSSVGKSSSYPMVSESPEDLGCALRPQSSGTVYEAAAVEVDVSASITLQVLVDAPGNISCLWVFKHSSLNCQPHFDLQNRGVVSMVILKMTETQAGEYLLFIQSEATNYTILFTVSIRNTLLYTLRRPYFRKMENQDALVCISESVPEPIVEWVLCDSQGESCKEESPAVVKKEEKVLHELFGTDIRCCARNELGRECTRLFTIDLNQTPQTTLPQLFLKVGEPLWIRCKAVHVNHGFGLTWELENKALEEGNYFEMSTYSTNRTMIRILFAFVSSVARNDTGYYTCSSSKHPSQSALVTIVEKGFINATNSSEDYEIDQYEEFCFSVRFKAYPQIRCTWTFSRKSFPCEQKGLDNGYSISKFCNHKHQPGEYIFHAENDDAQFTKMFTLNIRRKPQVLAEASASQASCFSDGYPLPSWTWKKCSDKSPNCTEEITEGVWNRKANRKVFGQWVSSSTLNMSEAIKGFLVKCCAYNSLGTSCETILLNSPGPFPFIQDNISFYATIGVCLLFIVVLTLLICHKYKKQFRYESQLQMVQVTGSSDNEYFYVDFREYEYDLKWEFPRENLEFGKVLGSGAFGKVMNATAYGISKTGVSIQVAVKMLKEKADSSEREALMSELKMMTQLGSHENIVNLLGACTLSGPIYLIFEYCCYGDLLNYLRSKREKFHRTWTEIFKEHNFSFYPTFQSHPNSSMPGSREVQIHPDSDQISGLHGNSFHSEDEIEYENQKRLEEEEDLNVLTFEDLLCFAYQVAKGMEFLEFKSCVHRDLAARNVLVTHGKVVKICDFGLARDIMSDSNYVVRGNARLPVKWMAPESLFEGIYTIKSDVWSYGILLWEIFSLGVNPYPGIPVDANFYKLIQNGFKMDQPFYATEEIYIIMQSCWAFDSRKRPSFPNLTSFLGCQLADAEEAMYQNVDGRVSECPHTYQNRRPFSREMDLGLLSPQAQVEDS

[7] = biological target: Proto-oncogene tyrosine-protein kinase receptor Ret (Homo sapiens, UniProt P07949)
Chain of Proto-oncogene tyrosine-protein kinase receptor Ret (P07949 whole entry): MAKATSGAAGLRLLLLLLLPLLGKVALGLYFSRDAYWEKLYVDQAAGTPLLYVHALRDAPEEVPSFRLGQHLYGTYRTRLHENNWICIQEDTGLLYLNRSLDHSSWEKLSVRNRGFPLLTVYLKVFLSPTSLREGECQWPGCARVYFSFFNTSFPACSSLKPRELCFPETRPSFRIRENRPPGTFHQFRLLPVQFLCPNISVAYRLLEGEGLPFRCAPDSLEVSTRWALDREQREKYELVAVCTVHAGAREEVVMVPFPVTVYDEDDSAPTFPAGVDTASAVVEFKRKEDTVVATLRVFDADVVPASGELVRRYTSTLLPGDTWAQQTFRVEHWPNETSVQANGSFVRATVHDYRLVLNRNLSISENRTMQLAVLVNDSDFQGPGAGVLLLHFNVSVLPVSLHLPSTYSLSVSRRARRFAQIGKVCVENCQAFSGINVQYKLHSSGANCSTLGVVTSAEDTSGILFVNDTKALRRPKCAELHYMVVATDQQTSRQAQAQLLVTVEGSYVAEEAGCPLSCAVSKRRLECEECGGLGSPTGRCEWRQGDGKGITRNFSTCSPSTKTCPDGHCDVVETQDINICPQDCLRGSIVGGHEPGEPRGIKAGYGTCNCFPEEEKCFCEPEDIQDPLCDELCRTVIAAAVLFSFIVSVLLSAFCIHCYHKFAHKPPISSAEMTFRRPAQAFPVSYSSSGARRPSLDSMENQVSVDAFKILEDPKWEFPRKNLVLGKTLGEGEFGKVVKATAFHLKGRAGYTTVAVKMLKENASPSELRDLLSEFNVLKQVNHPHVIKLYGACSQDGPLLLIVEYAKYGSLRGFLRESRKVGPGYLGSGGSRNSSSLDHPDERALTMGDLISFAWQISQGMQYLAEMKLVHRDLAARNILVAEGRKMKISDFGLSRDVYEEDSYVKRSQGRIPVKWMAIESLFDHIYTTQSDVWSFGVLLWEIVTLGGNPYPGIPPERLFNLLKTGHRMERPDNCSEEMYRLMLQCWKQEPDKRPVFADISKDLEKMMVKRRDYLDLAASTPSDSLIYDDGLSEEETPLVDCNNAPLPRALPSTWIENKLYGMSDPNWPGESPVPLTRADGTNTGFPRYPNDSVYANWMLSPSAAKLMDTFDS

[8] = biological target: Serine/threonine-protein kinase PAK 6 (Homo sapiens, UniProt Q9NQU5)
Chain of Serine/threonine-protein kinase PAK 6 (Q9NQU5 whole entry): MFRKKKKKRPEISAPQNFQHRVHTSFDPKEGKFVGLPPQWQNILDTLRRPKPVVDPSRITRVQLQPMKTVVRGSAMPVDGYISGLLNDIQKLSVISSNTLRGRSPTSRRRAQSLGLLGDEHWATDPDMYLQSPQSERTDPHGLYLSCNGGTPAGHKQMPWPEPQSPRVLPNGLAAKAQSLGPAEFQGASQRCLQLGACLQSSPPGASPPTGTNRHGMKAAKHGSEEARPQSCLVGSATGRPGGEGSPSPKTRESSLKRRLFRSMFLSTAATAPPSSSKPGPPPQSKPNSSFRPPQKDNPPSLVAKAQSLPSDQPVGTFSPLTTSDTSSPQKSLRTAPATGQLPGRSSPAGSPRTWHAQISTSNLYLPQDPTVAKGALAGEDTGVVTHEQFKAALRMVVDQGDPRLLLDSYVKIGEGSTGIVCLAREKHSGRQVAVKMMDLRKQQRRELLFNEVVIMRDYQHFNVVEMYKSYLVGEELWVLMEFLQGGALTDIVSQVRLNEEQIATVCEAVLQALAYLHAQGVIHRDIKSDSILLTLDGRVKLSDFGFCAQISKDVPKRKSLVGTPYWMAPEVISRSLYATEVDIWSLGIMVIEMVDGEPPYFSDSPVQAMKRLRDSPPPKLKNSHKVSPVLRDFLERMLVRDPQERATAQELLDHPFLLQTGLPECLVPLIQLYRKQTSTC

[9] = biological target: Serine/threonine-protein kinase Nek7 (Homo sapiens, UniProt Q8TDX7)
Chain of Serine/threonine-protein kinase Nek7 (Q8TDX7 whole entry): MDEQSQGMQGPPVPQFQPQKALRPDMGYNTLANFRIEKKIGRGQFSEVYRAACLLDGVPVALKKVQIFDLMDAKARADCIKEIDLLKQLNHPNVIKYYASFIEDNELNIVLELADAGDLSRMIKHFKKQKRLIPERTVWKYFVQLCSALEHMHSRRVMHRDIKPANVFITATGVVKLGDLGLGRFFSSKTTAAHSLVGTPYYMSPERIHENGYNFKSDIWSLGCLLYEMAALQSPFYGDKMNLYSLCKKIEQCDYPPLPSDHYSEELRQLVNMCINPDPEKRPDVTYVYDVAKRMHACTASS

[10] = biological target: T3, UMP-CMP kinase (Homo sapiens, UniProt P30085)
T3 sequence (P30085 whole entry): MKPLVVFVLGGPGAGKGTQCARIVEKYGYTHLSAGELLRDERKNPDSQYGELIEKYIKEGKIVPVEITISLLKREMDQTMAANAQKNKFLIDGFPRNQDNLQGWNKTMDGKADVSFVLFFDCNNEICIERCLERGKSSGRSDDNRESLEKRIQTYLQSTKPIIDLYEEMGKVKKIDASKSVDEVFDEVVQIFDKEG

[11] = biological target: Phosphatidylethanolamine-binding protein 1 (Homo sapiens, UniProt P30086)
Chain of Phosphatidylethanolamine-binding protein 1 (P30086 whole entry): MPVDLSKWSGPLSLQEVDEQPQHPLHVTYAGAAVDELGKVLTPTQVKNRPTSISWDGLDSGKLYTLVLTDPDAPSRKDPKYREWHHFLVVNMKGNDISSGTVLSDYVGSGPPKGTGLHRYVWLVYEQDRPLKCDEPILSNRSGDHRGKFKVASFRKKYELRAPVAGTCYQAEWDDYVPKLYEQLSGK
Also: in the data inactive means no Kd found up to 30 µM.

Chain of Dual specificity testis-specific protein kinase 1 (Q15569 whole entry): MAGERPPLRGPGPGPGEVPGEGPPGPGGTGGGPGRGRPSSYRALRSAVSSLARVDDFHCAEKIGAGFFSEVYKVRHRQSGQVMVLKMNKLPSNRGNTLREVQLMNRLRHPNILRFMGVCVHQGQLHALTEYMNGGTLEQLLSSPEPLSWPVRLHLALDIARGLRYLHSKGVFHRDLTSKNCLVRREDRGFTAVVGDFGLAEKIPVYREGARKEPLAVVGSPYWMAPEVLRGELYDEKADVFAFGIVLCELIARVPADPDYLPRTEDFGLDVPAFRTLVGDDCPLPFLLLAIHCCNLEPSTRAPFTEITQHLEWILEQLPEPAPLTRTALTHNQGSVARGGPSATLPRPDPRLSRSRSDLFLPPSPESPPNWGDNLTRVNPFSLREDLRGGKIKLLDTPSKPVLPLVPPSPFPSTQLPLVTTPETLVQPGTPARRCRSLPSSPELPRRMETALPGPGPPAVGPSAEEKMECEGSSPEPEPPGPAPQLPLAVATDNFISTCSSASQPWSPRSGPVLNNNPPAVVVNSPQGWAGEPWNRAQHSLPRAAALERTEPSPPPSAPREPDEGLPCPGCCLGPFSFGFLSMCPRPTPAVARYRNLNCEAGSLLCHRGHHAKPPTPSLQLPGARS
Chain of Dual specificity protein kinase CLK2 (P49760 whole entry): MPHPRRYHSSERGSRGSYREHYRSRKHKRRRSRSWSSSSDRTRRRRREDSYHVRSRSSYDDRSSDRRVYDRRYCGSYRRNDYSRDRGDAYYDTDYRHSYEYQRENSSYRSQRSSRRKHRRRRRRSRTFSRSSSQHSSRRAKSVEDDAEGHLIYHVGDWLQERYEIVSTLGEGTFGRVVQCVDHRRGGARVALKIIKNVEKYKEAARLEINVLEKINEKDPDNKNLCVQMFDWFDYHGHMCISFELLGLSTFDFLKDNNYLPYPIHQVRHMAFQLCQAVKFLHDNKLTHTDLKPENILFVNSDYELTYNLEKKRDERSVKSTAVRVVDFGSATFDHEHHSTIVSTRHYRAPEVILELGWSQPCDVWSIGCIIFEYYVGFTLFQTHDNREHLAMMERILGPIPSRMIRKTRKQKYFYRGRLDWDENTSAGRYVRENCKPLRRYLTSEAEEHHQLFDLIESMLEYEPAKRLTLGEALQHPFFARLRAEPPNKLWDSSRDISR
Chain of High affinity nerve growth factor receptor (P04629 whole entry): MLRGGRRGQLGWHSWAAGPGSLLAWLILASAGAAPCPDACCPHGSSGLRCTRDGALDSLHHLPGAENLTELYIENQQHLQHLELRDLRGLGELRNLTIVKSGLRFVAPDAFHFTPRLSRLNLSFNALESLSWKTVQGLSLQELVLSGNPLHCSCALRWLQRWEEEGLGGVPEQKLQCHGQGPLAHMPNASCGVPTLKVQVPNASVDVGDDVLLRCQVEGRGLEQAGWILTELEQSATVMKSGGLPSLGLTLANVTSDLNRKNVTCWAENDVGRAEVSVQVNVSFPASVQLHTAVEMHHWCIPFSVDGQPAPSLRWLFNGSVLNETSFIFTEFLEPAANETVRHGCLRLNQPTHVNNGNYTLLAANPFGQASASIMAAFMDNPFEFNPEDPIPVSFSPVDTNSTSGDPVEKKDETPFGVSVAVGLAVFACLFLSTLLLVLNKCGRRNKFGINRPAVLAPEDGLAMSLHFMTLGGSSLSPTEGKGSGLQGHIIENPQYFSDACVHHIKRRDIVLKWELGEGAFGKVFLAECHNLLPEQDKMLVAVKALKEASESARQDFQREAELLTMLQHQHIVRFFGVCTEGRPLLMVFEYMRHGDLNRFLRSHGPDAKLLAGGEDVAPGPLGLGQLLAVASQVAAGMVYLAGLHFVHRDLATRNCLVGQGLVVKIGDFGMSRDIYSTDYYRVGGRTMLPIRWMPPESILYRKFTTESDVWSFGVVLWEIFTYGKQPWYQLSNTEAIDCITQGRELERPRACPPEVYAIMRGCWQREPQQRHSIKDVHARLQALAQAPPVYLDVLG

Compound	Kd [1]	Kd [2]	Kd [3]	Kd [4]	Kd [5]	Kd [6]	Kd [7]	Kd [8]	Kd [9]	Kd [10]	Kd [11]
O=C(Nc1ccc(OC(F)(F)F)cc1)c1sccc1NCc1ccnc2ccccc12 [OSI-930]	> 30 µM (inactive)	> 30 µM (inactive)	> 30 µM (inactive)	> 30 µM (inactive)	> 30 µM (inactive)	> 30 µM (inactive)	0.388 µM (active)	> 30 µM (inactive)			
Cc1cc(Nc2nc(N[C@@H](C)c3ncc(F)cn3)ncc2Cl)n[nH]1 [AZD-1480]	> 30 µM (inactive)	> 30 µM (inactive)	> 30 µM (inactive)	> 30 µM (inactive)	> 30 µM (inactive)	1.68 µM (active)	0.238 µM (active)	> 30 µM (inactive)	> 30 µM (inactive)	> 30 µM (inactive)	> 30 µM (inactive)
CCc1cc2c(cc1N1CCC(N3CCOCC3)CC1)C(C)(C)c1[nH]c3cc(C#N)ccc3c1C2=O [ALECTINIB]	> 30 µM (inactive)	2.32 µM (active)	> 30 µM (inactive)	0.193 µM (active)	> 30 µM (inactive)	> 30 µM (inactive)		> 30 µM (inactive)		> 30 µM (inactive)	> 30 µM (inactive)
CNC(=O)c1cccc(-c2ccc3c(N4CCOC[C@@H]4C)nc(N4CCOC[C@@H]4C)nc3n2)c1 [VISTUSERTIB]	> 30 µM (inactive)	> 30 µM (inactive)	> 30 µM (inactive)	> 30 µM (inactive)	> 30 µM (inactive)	> 30 µM (inactive)	> 30 µM (inactive)	> 30 µM (inactive)		> 30 µM (inactive)	> 30 µM (inactive)
Cn1c(=O)c(F)c(Nc2ccc(I)cc2F)c2c(=O)n(C[C@@H](O)CO)cnc21 [TAK-733]	> 30 µM (inactive)	> 30 µM (inactive)	> 30 µM (inactive)	> 30 µM (inactive)	> 30 µM (inactive)	> 30 µM (inactive)	> 30 µM (inactive)	> 30 µM (inactive)	> 30 µM (inactive)		> 30 µM (inactive)
O=C(NOC[C@H](O)CO)c1ccc(F)c(F)c1Nc1ccc(I)cc1F [MIRDAMETINIB]	> 30 µM (inactive)	> 30 µM (inactive)	> 30 µM (inactive)	> 30 µM (inactive)	> 30 µM (inactive)	> 30 µM (inactive)	> 30 µM (inactive)	> 30 µM (inactive)	> 30 µM (inactive)		
COc1cc(Nc2ncc(F)c(Nc3ccc4c(n3)N(COP(=O)(O)O)C(=O)C(C)(C)O4)n2)cc(OC)c1OC [FOSTAMATINIB]	> 30 µM (inactive)		> 30 µM (inactive)	> 30 µM (inactive)	> 30 µM (inactive)	0.843 µM (active)	1.15 µM (active)		> 30 µM (inactive)	> 30 µM (inactive)	> 30 µM (inactive)
Cc1ccc(C(=O)Nc2ccc(Oc3cc4cnn(C)c4cc3-c3cn[nH]c3)c(F)c2)c(=O)n1-c1ccc(F)cc1 [MERESTINIB]	> 30 µM (inactive)	> 30 µM (inactive)	1.03 µM	> 30 µM (inactive)	> 30 µM (inactive)	0.309 µM (active)	1.38 µM (active)	> 30 µM (inactive)		> 30 µM (inactive)	> 30 µM (inactive)
Cc1c(Cn2c(C)nc3c(C(=O)O)cc(N4CCOCC4)cc32)cccc1C(F)(F)F [GSK-2636771]	> 30 µM (inactive)	> 30 µM (inactive)	> 30 µM (inactive)	> 30 µM (inactive)	> 30 µM (inactive)	> 30 µM (inactive)	> 30 µM (inactive)		> 30 µM (inactive)	> 30 µM (inactive)	
S=C(NCc1ccc2c(c1)OCO2)N1CCN(c2ncnc3c2oc2ccccc23)CC1 [AMUVATINIB]		> 30 µM (inactive)	> 30 µM (inactive)		> 30 µM (inactive)	> 30 µM (inactive)	> 30 µM (inactive)		> 30 µM (inactive)	> 30 µM (inactive)	> 30 µM (inactive)
C#Cc1cccc(Nc2ncnc3cc4c(cc23)OCCOCCOCCO4)c1 [ICOTINIB]	> 30 µM (inactive)	> 30 µM (inactive)	> 30 µM (inactive)	> 30 µM (inactive)	> 30 µM (inactive)	> 30 µM (inactive)	> 30 µM (inactive)	> 30 µM (inactive)	> 30 µM (inactive)	> 30 µM (inactive)	> 30 µM (inactive)
Cn1c(=O)n(-c2ccc(C(C)(C)C#N)cc2)c2c3cc(-c4cnc5ccccc5c4)ccc3ncc21 [DACTOLISIB]	> 30 µM (inactive)			> 30 µM (inactive)	> 30 µM (inactive)			> 30 µM (inactive)		> 30 µM (inactive)	> 30 µM (inactive)
O=S(=O)(c1cccc2cnccc12)N1CCCNCC1 [FASUDIL]	> 30 µM (inactive)			> 30 µM (inactive)	> 30 µM (inactive)				> 30 µM (inactive)	> 30 µM (inactive)	> 30 µM (inactive)
O=C(NC[C@H](O)CO)c1ccncc1Nc1ccc(I)cc1F [PIMASERTIB]	> 30 µM (inactive)	> 30 µM (inactive)	> 30 µM (inactive)		> 30 µM (inactive)	> 30 µM (inactive)	> 30 µM (inactive)	> 30 µM (inactive)		> 30 µM (inactive)	> 30 µM (inactive)
c1cc(OCCN2CCCCC2)cc(-c2n[nH]c3ccc(-c4nc[nH]n4)cc23)c1 [CC-401]	> 30 µM (inactive)	> 30 µM (inactive)	> 30 µM (inactive)	> 30 µM (inactive)	> 30 µM (inactive)	> 30 µM (inactive)	> 30 µM (inactive)	> 30 µM (inactive)	> 30 µM (inactive)		> 30 µM (inactive)
CC(C)CC(=O)Nc1[nH]nc2c1CN(C(=O)C1CCN(C)CC1)C2(C)C [PHA-793887]		0.007 µM	> 30 µM (inactive)	> 30 µM (inactive)	> 30 µM (inactive)	> 30 µM (inactive)			> 30 µM (inactive)	> 30 µM (inactive)	> 30 µM (inactive)

From ChEMBL document CHEMBL3991601, “The target landscape of clinical kinase drugs” (Science, 2017)
